Patent US9457033B2, “Steroid alkaloids and uses thereof as antimicrobial agents against electron transport-deficient microbes and as potentiators for antimicrobial agents against pathogenic bacteria” (priority 2011, dated 2016)

Experiments:
S. aureus ATCC 29213 = experiment: MIC, microdilution in BHI 48 h (Examples 1, 3); assay type: cell-based, Staphylococcus aureus
[1] = tested on: S. aureus Newbould (normal strain); experiment: MIC, microdilution in BHI 48 h; assay type: cell-based, Staphylococcus aureus; settings: Newbould, normal strain
[2] = tested on: S. aureus SCV NewbouldΔhemB; experiment: MIC, microdilution in BHI 48 h; assay type: cell-based, Staphylococcus aureus; settings: NewbouldΔhemB, SCV
[3] = tested on: S. aureus CF07-L (normal strain); experiment: MIC, microdilution in BHI 48 h (Examples 1, 3); assay type: cell-based, Staphylococcus aureus
S. aureus SCV CF07-S = experiment: MIC, microdilution in BHI 48 h (Examples 1, 3); assay type: cell-based, Staphylococcus aureus
[4] = tested on: S. aureus CF1A-L (normal strain); experiment: MIC, microdilution in BHI 48 h; assay type: cell-based, Staphylococcus aureus; settings: CF1A-L, normal strain
S. aureus SCV CF1D-S = experiment: MIC, microdilution in BHI 48 h; assay type: cell-based, Staphylococcus aureus; settings: CF1D-S, SCV
S. aureus 8325-4 = experiment: MIC, microdilution in CAMHB 24 h; assay type: cell-based, Staphylococcus aureus; settings: 8325-4
S. aureus MA078038 = experiment: MIC, microdilution in CAMHB 24 h; assay type: cell-based, Staphylococcus aureus
S. aureus Newman = experiment: MIC, microdilution in CAMHB 24 h; assay type: cell-based, Staphylococcus aureus; settings: Newman
S. aureus Mu50 = experiment: MIC, microdilution in CAMHB 24 h; assay type: cell-based, Staphylococcus aureus
S. aureus CF7A-L = experiment: MIC, microdilution in CAMHB 24 h; assay type: cell-based, Staphylococcus aureus; settings: CF7A-L
[5] = tested on: all tested S. aureus strains; experiment: Average potentiation of aminoglycoside MIC by tomatidine (FIGS. 6, 7); assay type: cell-based, Staphylococcus aureus; settings: tomatidine at 8 μg/ml
[6] = tested on: S. epidermidis ATCC 12228; experiment: MIC, microdilution, with or without tomatidine; settings: S. epidermidis ATCC 12228
[7] = tested on: S. epidermidis ATCC 35984; experiment: MIC, microdilution, with or without tomatidine; settings: S. epidermidis ATCC 35984
S. haemolyticus sh022 = experiment: MIC, microdilution, with or without tomatidine; settings: S. haemolyticus sh022
S. haemolyticus sh032 = experiment: MIC, microdilution, with or without tomatidine; settings: S. haemolyticus sh032
S. hominis ssp008c = experiment: MIC, microdilution, with or without tomatidine; settings: S. hominis ssp008c
S. hominis sho23 = experiment: MIC, microdilution, with or without tomatidine; settings: S. hominis sho23
normal strain CF07-L = experiment: Broth growth with gentamicin or tomatidine, visually evaluated (FIG. 5A); settings: gentamicin at 4 μg/ml or tomatidine at 0.12 μg/ml alone, 48 h
[8] = tested on: heterogeneous population of normal strain CF07-L and SCV CF07-S; experiment: Broth growth with gentamicin and tomatidine, visually evaluated (FIG. 5C); settings: combination of gentamicin at 4 μg/ml and tomatidine at 0.12 μg/ml

gentamicin
MIC (S. aureus ATCC 29213; ATCC 29213 + HQNO at 20 μg/ml): 4 µg/mL
MIC (S. aureus ATCC 29213; ATCC 29213, without HQNO): 1 µg/mL
MIC in presence of CCCP (S. aureus ATCC 29213; ATCC 29213, 1 μg/ml CCCP): 4 to 8 µg/mL
MIC (S. aureus ATCC 29213; ATCC 29213 in BHI): 1 µg/mL
MIC (S. aureus ATCC 29213; ATCC 29213 in MHBCA): 0.5-1^ μg/ml
MIC [1]: 0.5-1^ μg/ml
MIC [2]: 4 to 8 µg/mL
MIC ([3]; CF07-L + HQNO at 20 μg/ml): 4 µg/mL
MIC ([3]; CF07-L, normal strain): 1 to 2 µg/mL
MIC ([3]; CF07-L, without HQNO): 1 to 2 µg/mL
MIC (S. aureus SCV CF07-S; CF07-S + HQNO at 20 μg/ml): 4 to 8 µg/mL
MIC (S. aureus SCV CF07-S; CF07-S, SCV): 8 µg/mL
MIC (S. aureus SCV CF07-S; CF07-S, without HQNO): 8 µg/mL
MIC [4]: 1 to 2 µg/mL
MIC (S. aureus SCV CF1D-S): 8 µg/mL
Fold (−TO/+TO) (S. aureus 8325-4; 8 μg/ml of tomatidine): 4 fold
MIC +TO (S. aureus 8325-4; 8 μg/ml of tomatidine): 0.03 to 0.06 µg/mL
MIC (S. aureus 8325-4; Laboratory strain): 0.12 to 0.25 µg/mL
MIC −TO (S. aureus 8325-4; absence of tomatidine): 0.12 to 0.25 µg/mL
MIC +TO (S. aureus MA078038; MA078038, aph(3′)-IIIa, 8 μg/ml of tomatidine): 0.06 µg/mL
MIC −TO (S. aureus MA078038; MA078038, aph(3′)-IIIa, absence of tomatidine): 0.25 to 0.5 µg/mL
Fold (−TO/+TO) (S. aureus MA078038; MA078038, 8 μg/ml of tomatidine): 4-8 fold
MIC (S. aureus MA078038; MA078038, Human (CA), MRSA): 0.25 to 0.5 µg/mL
Fold (−TO/+TO) (S. aureus Newman; 8 μg/ml of tomatidine): 8-16 fold
MIC +TO (S. aureus Newman; 8 μg/ml of tomatidine): 0.06 µg/mL
MIC (S. aureus Newman; Human (Osteo)): 0.5 to 1 µg/mL
MIC −TO (S. aureus Newman; absence of tomatidine): 0.5 to 1 µg/mL
MIC +TO (S. aureus Mu50; Mu50, aac(6′)-aph(2″), ant(4′)-Ia, 8 μg/ml of tomatidine): 16 µg/mL
MIC −TO (S. aureus Mu50; Mu50, aac(6′)-aph(2″), ant(4′)-Ia, absence of tomatidine): 128 µg/mL
Fold (−TO/+TO) (S. aureus Mu50; Mu50, 8 μg/ml of tomatidine): 8 fold
MIC (S. aureus Mu50; Mu50, Human (SSTI), MRSA, VISA): 128 (R) μg/ml
MIC +TO (S. aureus CF7A-L; ant(4′)-Ia, 8 μg/ml of tomatidine): 0.12 to 0.25 µg/mL
MIC −TO (S. aureus CF7A-L; ant(4′)-Ia, absence of tomatidine): 0.5 to 1 µg/mL
Fold (−TO/+TO) (S. aureus CF7A-L; 8 μg/ml of tomatidine): 2-8 fold
MIC (S. aureus CF7A-L; Human (CF lungs), MRSA): 0.5 to 1 µg/mL
average increase of antibacterial activity [5]: 8±3 fold
Fold (−TO/+TO) ([6]; 8 μg/ml of tomatidine): 2 fold
MIC +TO ([6]; 8 μg/ml of tomatidine): 0.06 µg/mL
MIC −TO ([6]; absence of tomatidine): 0.12 µg/mL
Fold (−TO/+TO) ([7]; 8 μg/ml of tomatidine): 4 fold
MIC +TO ([7]; 8 μg/ml of tomatidine): 8 µg/mL
MIC −TO ([7]; absence of tomatidine): 32 µg/mL
Fold (−TO/+TO) (S. haemolyticus sh022; 8 μg/ml of tomatidine): 4 fold
MIC +TO (S. haemolyticus sh022; 8 μg/ml of tomatidine): 4 µg/mL
MIC −TO (S. haemolyticus sh022; absence of tomatidine): 16 µg/mL
Fold (−TO/+TO) (S. haemolyticus sh032; 8 μg/ml of tomatidine): 8 fold
MIC +TO (S. haemolyticus sh032; 8 μg/ml of tomatidine): 8 µg/mL
MIC −TO (S. haemolyticus sh032; absence of tomatidine): 64 µg/mL
Fold (−TO/+TO) (S. hominis ssp008c; 8 μg/ml of tomatidine): 4 fold
MIC +TO (S. hominis ssp008c; 8 μg/ml of tomatidine): 2 µg/mL
MIC −TO (S. hominis ssp008c; absence of tomatidine): 8 µg/mL
Fold (−TO/+TO) (S. hominis sho23; 8 μg/ml of tomatidine): 2 fold
MIC +TO (S. hominis sho23; 8 μg/ml of tomatidine): 0.06 µg/mL
MIC −TO (S. hominis sho23; absence of tomatidine): 0.12 µg/mL
growth, visually evaluated (normal strain CF07-L): inhibits the growth
growth, visually evaluated [8]: inhibits the growth
